According to patent US10322136B2, “Composition for inhibiting growth or proliferation of chronic myelogenous leukemia cancer stem cells, and screening method therefor” (HIROSHIMA UNIVERSITY, priority 2015, dated 2019):

Experiments:
[1] = biological target: T1, Slc15A2 transporter (Mus musculus, UniProt Q9ES07); assay: Slc15A2 transporter activity by [3H]GlySar uptake; assay type: cell-based; details: in the presence of 100 μM cefadroxil; pH 6.0; 60 or 120 min
T1 construct: endogenous in cells; host or cells: primary mouse normal KLS+ and CML KLS+ haematopoietic cells
T1 sequence (Q9ES07 1-729): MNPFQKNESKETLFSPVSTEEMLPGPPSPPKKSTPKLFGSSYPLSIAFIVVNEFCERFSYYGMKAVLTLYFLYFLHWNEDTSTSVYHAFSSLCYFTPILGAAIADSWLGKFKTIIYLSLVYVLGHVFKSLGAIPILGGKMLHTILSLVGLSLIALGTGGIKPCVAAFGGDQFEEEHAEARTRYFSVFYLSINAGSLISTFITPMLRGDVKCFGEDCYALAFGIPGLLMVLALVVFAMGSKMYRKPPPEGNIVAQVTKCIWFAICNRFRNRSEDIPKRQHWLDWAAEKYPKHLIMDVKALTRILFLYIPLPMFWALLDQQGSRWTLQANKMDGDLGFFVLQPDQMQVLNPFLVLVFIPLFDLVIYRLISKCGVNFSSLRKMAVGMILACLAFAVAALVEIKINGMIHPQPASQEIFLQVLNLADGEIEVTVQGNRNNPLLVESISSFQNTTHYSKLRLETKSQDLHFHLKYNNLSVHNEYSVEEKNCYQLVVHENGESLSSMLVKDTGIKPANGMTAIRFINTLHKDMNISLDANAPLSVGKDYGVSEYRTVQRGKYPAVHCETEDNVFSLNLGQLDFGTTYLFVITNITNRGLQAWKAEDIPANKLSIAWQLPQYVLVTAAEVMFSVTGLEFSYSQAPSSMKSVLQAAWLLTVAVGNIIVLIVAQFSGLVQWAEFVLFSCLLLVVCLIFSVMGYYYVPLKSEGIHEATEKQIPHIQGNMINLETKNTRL
Description: 6. Analysis of Slc15A2 Transporter Activity by [3H]GlySar Uptake
Slc15A2 transporter activity was determined using a well-established assay measuring [3H]GlySar uptake by cells suspended in an acidic transport medium (pH 6.0). Briefly, normal KLS^+ cells or CML KLS^+ cells (1×10^5) were suspended in a transport medium (125 mM NaCl, 4.8 mM KCl, 5.6 mM D-glucose, 1.2 mM CaCl2-2H2O4, 1.2 mM KH2PO4, 1.2 mM MgSO4-7H2O and 25 mM MES, pH 6.0) in the absence or presence of 100 μM cefadroxil (Sigma-Aldrich). To initiate the transporter reaction, [3H]GlySar (Moravek Biochemicals, Brea, Calif.) was added to the cell suspension. After 60 or 120 min, the radioactivity of [3H]GlySar internalized by cells was measured using a liquid scintillation counter.

[2] = system: LT-CML cancer stem cells; assay: Colony-forming assay, LT-CML cancer stem cells on OP-9 stromal cells; assay type: cell-based, mouse; details: 5 μM, 5 days, hypoxic (3% O2)
Description: LT-CML stem cells or LT-normal HSCs (1×10^3/plate) were co-cultured on OP-9 stromal cells for 5 days in the presence of either vehicle (control) or a dipeptide transporter inhibitor cefadroxil (5 μM). Cells were harvested, washed with PBS, and plated in semi-solid methylcellulose medium containing SCF, IL-3, IL-6 and erythropoietin (Methocult GF M3434; Stem Cell Technologies). After growth for 7 days in a humidified atmosphere containing 5% CO2 at 37° C., colony numbers were counted under a light microscope. For combination treatments of dipeptide transporter inhibitor+tyrosine kinase inhibitor (TKI), LT-CML cancer stem cells (3×10^3) were plated on OP-9 stromal cells in the presence of cefadroxil (5 μM). After 24 h in culture, the cells received additional DMSO or 1 μM IM (Axon Medchem) and were incubated for another 4 days (total 5 days). Treated cells were washed with PBS, transferred to a semi-solid medium, and colony formation after 7 days was assessed as described above.

[3] = system: normal HSCs; assay: Colony-forming assay, LT-normal HSCs on OP-9 stromal cells; assay type: cell-based, mouse; details: 5 μM, 5 days, hypoxic (3% O2)
Description: LT-CML stem cells or LT-normal HSCs (1×10^3/plate) were co-cultured on OP-9 stromal cells for 5 days in the presence of either vehicle (control) or a dipeptide transporter inhibitor cefadroxil (5 μM). Cells were harvested, washed with PBS, and plated in semi-solid methylcellulose medium containing SCF, IL-3, IL-6 and erythropoietin (Methocult GF M3434; Stem Cell Technologies). After growth for 7 days in a humidified atmosphere containing 5% CO2 at 37° C., colony numbers were counted under a light microscope.

[4] = system: Raptor-Ser792; assay: Raptor-Ser792 phosphorylation in LT-CML cancer stem cells; assay type: cell-based, mouse; details: LT-CML cancer stem cells in vitro
[5] = system: CML-KLS+ cells; assay: Number of GFP/BCR-ABL1+ CML-KLS+ cells in BM of treated CML-affected mice; assay type: in vivo, mouse; details: daily for 30 days post transplantation
Description: (§1) Briefly, CML-affected mice received by oral gavage for 30 days post BM transplantation as described above. The number of GFP/BCR-ABL1+CML-KLS+ cells among total GFP/BCR-ABL1+CML cells isolated from BM MNCs acquired from the two hindlimbs of treated CML-affected mice was assessed by flow cytometry. Freshly purified GFP/BCR-ABL1^+CML-KLS^+ cells (3×10^4) were then serially transplanted into a second set of lethally irradiated congenic recipient mice along with 5×10^5 normal BM MNCs derived from C57BL/6 mice. Mouse survival and disease recurrence were monitored for 90 days.

[6] = system: CML-KLS+ cells; assay: Serial transplantation of CML stem cells; assay type: in vivo, mouse
Description: as §1, with “To evaluate the retention of the disease-initiating capacity by CML stem cells after treatment of mice with cefadroxil […] and/or IM in vivo, the number of GFP/BCR-ABL1+CMLKLS^+ cells in treated BCR-ABL1 CML-affected mice was determined, and subsequent secondary transplantation of the cells was performed. Briefly,” for “Briefly,”

CC1=C(C(=O)O)N2C(=O)[C@@H](NC(=O)[C@H](N)c3ccc(O)cc3)[C@H]2SC1 [cefadroxil]
[3H]GlySar uptake by CML-KLS+ cells [1]: markedly decreased
colony-forming capacity of LT-CML cancer stem cells [2]: significantly decreased
colony-forming capacity of normal HSCs [3]: maintained normal levels
Raptor-Ser792 phosphorylation [4]: did not promote
number of CML-KLS+ cells among GFP/BCR-ABL1+ CML cells from BM [5]: significantly decreased
ability of CML-KLS+ cells from treated mice to drive BCR-ABL1+ disease in new recipients ([6]; 3x10^4 cells per recipient, donors treated with cefadroxil): completely lost their ability
survival of new recipient mice ([6]; recipients of CML-KLS+ cells from cefadroxil-treated mice): over 90 days
